Measurements taken from patent publication US9434711B2 (Janssen Pharmaceutica, NV, priority 2007, dated 2016).

Molecular target: canine TRPM8 (Canis lupus familiaris, UniProt Q1A7N1)
Experiment: In Vitro Canine TRPM8 Functional Assay (Ca2+ fluorescence, icilin activation)
Format: cell-based
Settings: HEK293 cells stably expressing canine TRPM8, icilin activation; for inhibition at 0.2 µM: 0.2 μM compound, read-out: % Inh @ 0.2; for IC50: average of two or more determinations, read-out: IC50
Summary of the method: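 Eight-point dose-response curves, each point averaging quadruplicate wells, gave EC50 or IC50. Canine TRPM8-expressing HEK293 cells, dye-loaded (Calcium 3), were pre-exposed 5 min to compound, then challenged with icilin at roughly EC80; intracellular Ca2+ read by FLIPR or FDSS fluorescence.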

Sequence of canine TRPM8 (Q1A7N1 1-1104): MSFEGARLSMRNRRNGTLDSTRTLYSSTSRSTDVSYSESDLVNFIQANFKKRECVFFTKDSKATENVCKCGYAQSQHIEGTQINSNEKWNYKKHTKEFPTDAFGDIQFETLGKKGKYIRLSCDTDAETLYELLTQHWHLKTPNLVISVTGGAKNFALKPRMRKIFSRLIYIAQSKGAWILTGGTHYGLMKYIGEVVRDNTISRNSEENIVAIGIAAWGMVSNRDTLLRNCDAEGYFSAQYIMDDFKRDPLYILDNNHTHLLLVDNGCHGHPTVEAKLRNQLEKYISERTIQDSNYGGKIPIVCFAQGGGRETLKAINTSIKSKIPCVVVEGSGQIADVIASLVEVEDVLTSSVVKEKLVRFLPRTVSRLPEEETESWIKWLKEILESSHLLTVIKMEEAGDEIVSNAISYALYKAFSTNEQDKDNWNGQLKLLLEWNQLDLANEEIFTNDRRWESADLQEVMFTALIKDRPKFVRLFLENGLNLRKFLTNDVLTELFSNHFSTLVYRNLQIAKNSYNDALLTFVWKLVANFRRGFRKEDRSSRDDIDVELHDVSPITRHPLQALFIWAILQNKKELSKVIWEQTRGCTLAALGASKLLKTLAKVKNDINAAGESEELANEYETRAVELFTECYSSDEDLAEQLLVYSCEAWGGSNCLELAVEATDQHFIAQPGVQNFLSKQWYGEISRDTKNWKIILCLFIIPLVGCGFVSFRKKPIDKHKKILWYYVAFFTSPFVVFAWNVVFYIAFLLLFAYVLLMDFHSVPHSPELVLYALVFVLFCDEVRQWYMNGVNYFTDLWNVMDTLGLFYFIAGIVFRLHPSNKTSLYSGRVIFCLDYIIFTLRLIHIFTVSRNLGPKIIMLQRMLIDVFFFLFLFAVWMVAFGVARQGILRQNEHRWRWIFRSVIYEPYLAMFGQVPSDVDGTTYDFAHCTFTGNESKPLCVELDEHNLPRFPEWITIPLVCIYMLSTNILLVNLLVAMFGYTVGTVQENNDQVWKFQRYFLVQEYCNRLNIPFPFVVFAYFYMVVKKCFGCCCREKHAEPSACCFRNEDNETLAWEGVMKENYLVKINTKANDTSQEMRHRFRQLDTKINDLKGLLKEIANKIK

inhibition at 0.2 µM [%]	IC50 [nM]	SMILES
89	55.1	CCS(=O)(=O)N(Cc1ccnc(F)c1)c1sc2ccccc2c1C(C)O (stereo not shown) [Compound 835, N-(2-Fluoropyridin-4-ylmethyl)-N-[3-(1-hydroxyethyl)-benzo[b]thiophen-2-yl]-ethanesulfonamide]
96	24	CCS(=O)(=O)N(Cc1ccnc(F)c1)c1sc2ccccc2c1C(C)(C)O [Compound 836, N-(2-Fluoro-pyridin-4-ylmethyl)-N-[3-(1-hydroxy-1-methyl-ethyl)-benzo[b]thiophen-2-yl]-ethanesulfonamide]
103	15	CCS(=O)(=O)N(Cc1ccc(F)c(OC)c1)c1sc2ccccc2c1C(C)=O [Compound 837, N-(3-Acetyl-benzo[b]thiophen-2-yl)-N-(4-fluoro-3-methoxy-benzyl)-ethanesulfonamide]
101		CCS(=O)(=O)N(Cc1ccc(F)c(OC)c1)c1sc2ccccc2c1C(C)(C)O [Compound 838, N-(4-Fluoro-3-methoxybenzyl)-N-[3-(1-hydroxy-1-methyl-ethyl)-benzo[b]thiophen-2-yl]-ethanesulfonamide]
101	15.9	CCS(=O)(=O)N(Cc1ccc(F)c(C(F)(F)F)c1)c1sc2ccccc2c1C(C)OC (stereo not shown) [Compound 839, N-(4-Fluoro-3-trifluoromethyl-benzyl)-N-[3-(1-methoxy-ethyl)-benzo[b]thiophen-2-yl]-ethanesulfonamide]
71.1	98.1	CCS(=O)(=O)N(Cc1c(F)cnc(F)c1F)c1sc2ccccc2c1C [Compound 840, N-(3-Methyl-benzo[b]thiophen-2-yl)-N-(2,3,5-trifluoro-pyridin-4-ylmethyl)-ethanesulfonamide]
55		Cc1c(N(CCF)S(=O)(=O)c2ccc(F)c(F)c2)sc2ccccc12 [Compound 841, N-(2-Fluoro-ethyl)-N-(3-methyl-benzo[b]thiophen-2-yl)-3,4-difluoro-benzenesulfonamide]
63		COC(=O)c1ccc(S(=O)(=O)N(CCCF)c2cc3ccccc3s2)cc1 [Compound 842, N-(Benzo[b]thiophen-2-yl)-N-(3-fluoro-propyl)-4-carbomethoxy-benzenesulfonamide]
31		COC(=O)c1ccc(S(=O)(=O)N(CCF)c2cc3ccccc3s2)cc1 [Compound 843, N-(Benzo[b]thiophen-2-yl)-N-(2-fluoro-ethyl)-4-carbomethoxy-benzenesulfonamide]
31		O=S(=O)(c1ccccc1)N(CCF)c1cc2ccccc2s1 [Compound 844, N-(Benzo[b]thiophen-2-yl)-N-(2-fluoro-ethyl)-benzenesulfonamide]
24		Cc1c(N(Cc2ccc(F)cc2)S(=O)(=O)c2ccc(OCc3ccc(F)cc3)c(F)c2)sc2ccccc12 [Compound 845, 3-Fluoro-N-(4-fluoro-benzyl)-4-(4-fluoro-benzyloxy)-N-(3-methyl-benzo[b]thiophen-2-yl)-benzenesulfonamide]

More lines, now with the values behind:

SMILES	inhibition at 0.2 µM [%]	IC50 [nM]
Cc1c(N(Cc2ccc(OC(F)(F)F)cc2)S(=O)(=O)c2ccc(-c3noc(=O)[nH]3)nc2)sc2ccccc12 [Compound 808]	102	
Cc1c(N(Cc2ccc(OC(F)(F)F)cc2)S(=O)(=O)c2ccc(-c3nsc(=O)[nH]3)cc2)sc2ccccc12 [Compound 810, N-(3-Methyl-benzo[b]thiophen-2-yl)-N-(4-trifluoromethoxy-benzyl)-4-(5-oxo-4,5-dihydro-[1,2,4]thiadiazol-3-yl)-benzenesulfonamide]	102	1
Cc1c(N(CCCCC(F)(F)F)S(=O)(=O)c2ccc(-c3n[nH]c(=O)[nH]3)cc2)sc2ccccc12 [Compound 811, N-(3-Methyl-benzo[b]thiophen-2-yl)-N-(5,5,5-trifluoro-pentyl)-4-(5-oxo-4,5-dihydro-1H-[1,2,4]triazol-3-yl)-benzenesulfonamide]	103	3.7
Cc1c(N(CCCCC(F)(F)F)S(=O)(=O)c2ccc(-c3nn(C)c(=O)[nH]3)cc2)sc2ccccc12 [Compound 812, N-(3-Methyl-benzo[b]thiophen-2-yl)-N-(5,5,5-trifluoro-pentyl)-4-(1-methyl-5-oxo-4,5-dihydro-1H-[1,2,4]triazol-3-yl)-benzenesulfonamide]	103	7.6
O=S(=O)(c1ccccc1)N(Cc1ccc(F)c(C(F)(F)F)c1)c1sc2ncccc2c1Cl [Compound 813, N-(3-Chloro-thieno[2,3-b]pyridin-2-yl)-N-(4-fluoro-3-trifluoromethyl-benzyl)-benzenesulfonamide]	90	28
O=C(O)c1cccc(S(=O)(=O)N(Cc2ccc(F)c(C(F)(F)F)c2)c2sc3ncccc3c2Cl)c1 [Compound 814, N-(3-Chloro-thieno[2,3-b]pyridin-2-yl)-N-(4-fluoro-3-trifluoromethyl-benzyl)-3-carboxy-benzenesulfonamide]	80	138
O=C(O)c1ccc(S(=O)(=O)N(CCC(F)(F)F)c2sc3ncccc3c2Cl)cc1 [Compound 815, N-(3-Chloro-thieno[2,3-b]pyridin-2-yl)-N-(3,3,3-trifluoro-propyl)-4-carboxy-benzenesulfonamide]	44	
COC(=O)c1cccc(S(=O)(=O)N(Cc2ccc(F)c(C(F)(F)F)c2)c2sc3ncccc3c2Cl)c1 [Compound 816, N-(3-Chloro-thieno[2,3-b]pyridin-2-yl)-N-(4-fluoro-3-trifluoromethyl-benzyl)-3-carbomethoxy-benzenesulfonamide]	15	
O=S(=O)(c1ccccc1)N(CCCF)c1cc2ccccc2s1 [Compound 817, N-(Benzo[b]thiophen-2-yl)-N-(3-fluoro-propyl)-benzenesulfonamide]	80	73
Cc1c(N(CCF)S(=O)(=O)c2ccccc2)sc2ccccc12 [Compound 818, N-(2-Fluoro-ethyl)-N-(3-methyl-benzo[b]thiophen-2-yl)-benzenesulfonamide]	92	62
Cc1c(N(CCCF)S(=O)(=O)c2ccccc2)sc2ccccc12 [Compound 819, N-(3-Fluoro-propyl)-N-(3-methyl-benzo[b]thiophen-2-yl)-benzenesulfonamide]	98	21
COC(C)c1c(N(CCCF)S(=O)(=O)c2ccccc2)sc2ccccc12 (stereo not shown) [Compound 822, N-(3-Fluoro-propyl)-N-[3-(1-methoxy-ethyl)-benzo[b]thiophen-2-yl]-benzenesulfonamide]	97	49
COC(=O)c1ccc(S(=O)(=O)N(CCCF)c2sc3ccccc3c2C)cc1 [Compound 823, N-(3-Fluoro-propyl)-N-(3-methyl-benzo[b]thiophen-2-yl)-4-carbomethoxy-benzenesulfonamide]	102	22
Cc1c(N(CCCF)S(=O)(=O)c2ccc(C(=O)O)cc2)sc2ccccc12 [Compound 824, N-(3-Fluoropropyl)-N-(3-methyl-benzo[b]thiophen-2-yl)-4-carboxy-benzenesulfonamide]	98	38
Cc1c(N(Cc2ccccc2)S(=O)(=O)c2ccc(F)c(F)c2)sc2ccccc12 [Compound 825, N-(Benzyl)-N-(3-methyl-benzo[b]thiophen-2-yl)-3,4-difluoro-benzenesulfonamide]	89	25
Cc1c(N(Cc2ccc(F)cc2)S(=O)(=O)c2ccc(F)c(F)c2)sc2ccccc12 [Compound 826, N-(4-Fluoro-benzyl)-N-(3-methyl-benzo[b]thiophen-2-yl)-3,4-difluoro-benzenesulfonamide]	97	24
CCS(=O)(=O)N(Cc1ccc(F)c(OC)c1)c1sc2ccccc2c1C(C)O (stereo not shown) [Compound 827, N-(4-Fluoro-3-methoxybenzyl)-N-[3-(1-hydroxyethyl)-benzo[b]thiophen-2-yl]-ethanesulfonamide]	101	6.6
CCS(=O)(=O)N(Cc1ccc(F)c(OC)c1)c1cc2ccccc2s1 [Compound 828, N-(Benzo[b]thiophen-2-yl)-N-(4-fluoro-3-methoxy-benzyl)-ethanesulfonamide]	88	42.7
CCS(=O)(=O)N(Cc1ccnc(F)c1)c1sc2ccccc2c1C [Compound 829, N-(2-Fluoro-pyridin-4-ylmethyl)-N-(3-methyl-benzo[b]thiophen-2-yl)-ethanesulfonamide]	100	23
CC(C)(O)c1c(N(CCCF)S(=O)(=O)c2ccccc2)sc2ccccc12 [Compound 830, N-(3-Fluoropropyl)-N-[3-(1-hydroxy-1-methyl-ethyl)-benzo[b]thiophen-2-yl]-benzenesulfonamide]	102	15
Cc1c(N(CCCF)S(=O)(=O)c2ccc(F)c(F)c2)sc2ccccc12 [Compound 831, N-(3-Fluoro-propyl)-N-(3-methyl-benzo[b]thiophen-2-yl)-3,4-difluoro-benzenesulfonamide]	91	50
COCc1c(N(CCCF)S(=O)(=O)c2ccccc2)sc2ccccc12 [Compound 832, N-(3-Fluoro-propyl)-N-(3-methoxymethyl-benzo[b]thiophen-2-yl)-benzenesulfonamide]	76	88
CC(=O)c1c(N(CCCF)S(=O)(=O)c2ccccc2)sc2ccccc12 [Compound 833, N-(3-Acetyl-benzo[b]thiophen-2-yl)-N-(3-fluoro-propyl)-benzenesulfonamide]	102	13
O=S(=O)(c1cc(Br)ccc1Br)N(Cc1ccc(F)c(F)c1)c1sc2ccccc2c1CO [Compound 834, 2,5-Dibromo-N-(3,4-difluoro-benzyl)-N-(3-hydroxymethyl-benzo[b]thiophen-2-yl)-benzenesulfonamide]	87	123
